The values below come from ChEMBL document CHEMBL3991601, “The target landscape of clinical kinase drugs” (Science, 2017).

Structures are written as SMILES. Active and inactive are the calls of the source.

One experiment deals with T1, Septin-9 (Homo sapiens, UniProt Q9UHD8).
T1 sequence (Q9UHD8 whole entry): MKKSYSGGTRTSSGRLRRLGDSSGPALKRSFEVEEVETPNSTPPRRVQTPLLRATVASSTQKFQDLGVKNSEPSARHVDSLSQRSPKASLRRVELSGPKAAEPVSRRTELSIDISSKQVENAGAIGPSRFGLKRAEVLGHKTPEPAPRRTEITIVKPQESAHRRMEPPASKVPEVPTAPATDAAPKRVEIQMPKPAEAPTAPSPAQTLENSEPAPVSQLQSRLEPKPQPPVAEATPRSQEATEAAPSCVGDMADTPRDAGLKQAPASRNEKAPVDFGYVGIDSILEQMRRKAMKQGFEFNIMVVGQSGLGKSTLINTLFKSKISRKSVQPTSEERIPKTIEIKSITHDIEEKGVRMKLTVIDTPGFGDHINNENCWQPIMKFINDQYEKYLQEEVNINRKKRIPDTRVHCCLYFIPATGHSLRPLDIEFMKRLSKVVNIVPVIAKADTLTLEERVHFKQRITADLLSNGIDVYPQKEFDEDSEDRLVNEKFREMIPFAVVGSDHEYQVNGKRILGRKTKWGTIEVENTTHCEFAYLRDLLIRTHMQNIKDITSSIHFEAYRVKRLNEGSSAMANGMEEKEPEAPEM

Another experiment has as its target T2, dCTP pyrophosphatase 1 (Homo sapiens, UniProt Q9H773).
T2 sequence (Q9H773 whole entry): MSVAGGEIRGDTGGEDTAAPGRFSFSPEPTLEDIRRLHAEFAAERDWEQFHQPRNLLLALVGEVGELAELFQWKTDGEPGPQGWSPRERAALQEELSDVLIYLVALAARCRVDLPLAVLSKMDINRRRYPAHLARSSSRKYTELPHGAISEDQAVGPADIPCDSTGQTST

The target of experiment [1] is T3, Succinate--CoA ligase [ADP-forming] subunit beta, mitochondrial (Homo sapiens, UniProt Q9P2R7).
T3 sequence (Q9P2R7 whole entry): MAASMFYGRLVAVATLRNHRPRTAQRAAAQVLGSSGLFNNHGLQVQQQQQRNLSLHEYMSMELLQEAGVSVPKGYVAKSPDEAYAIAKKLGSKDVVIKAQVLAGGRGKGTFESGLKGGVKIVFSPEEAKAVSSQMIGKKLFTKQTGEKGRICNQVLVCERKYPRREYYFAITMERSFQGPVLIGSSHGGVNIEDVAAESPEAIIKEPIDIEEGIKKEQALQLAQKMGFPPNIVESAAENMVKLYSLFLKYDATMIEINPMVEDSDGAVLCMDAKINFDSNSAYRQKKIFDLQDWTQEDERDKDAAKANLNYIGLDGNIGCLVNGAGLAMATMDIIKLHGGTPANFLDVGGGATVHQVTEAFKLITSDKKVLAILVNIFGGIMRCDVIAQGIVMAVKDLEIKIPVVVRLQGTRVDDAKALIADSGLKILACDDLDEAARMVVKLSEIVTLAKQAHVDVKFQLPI

Experiment [2] concerns the target Structural maintenance of chromosomes protein 2 (Homo sapiens, UniProt O95347).
For experiment [3], the target named is Inosine-5'-monophosphate dehydrogenase 2 (Homo sapiens, UniProt P12268).
Experiment [4] has as its target Cyclin-dependent kinase 6 (Homo sapiens, UniProt Q00534).
The target of experiment [5] is T4, RNA cytidine acetyltransferase (Homo sapiens, UniProt Q9H0A0).
T4 sequence (Q9H0A0 whole entry): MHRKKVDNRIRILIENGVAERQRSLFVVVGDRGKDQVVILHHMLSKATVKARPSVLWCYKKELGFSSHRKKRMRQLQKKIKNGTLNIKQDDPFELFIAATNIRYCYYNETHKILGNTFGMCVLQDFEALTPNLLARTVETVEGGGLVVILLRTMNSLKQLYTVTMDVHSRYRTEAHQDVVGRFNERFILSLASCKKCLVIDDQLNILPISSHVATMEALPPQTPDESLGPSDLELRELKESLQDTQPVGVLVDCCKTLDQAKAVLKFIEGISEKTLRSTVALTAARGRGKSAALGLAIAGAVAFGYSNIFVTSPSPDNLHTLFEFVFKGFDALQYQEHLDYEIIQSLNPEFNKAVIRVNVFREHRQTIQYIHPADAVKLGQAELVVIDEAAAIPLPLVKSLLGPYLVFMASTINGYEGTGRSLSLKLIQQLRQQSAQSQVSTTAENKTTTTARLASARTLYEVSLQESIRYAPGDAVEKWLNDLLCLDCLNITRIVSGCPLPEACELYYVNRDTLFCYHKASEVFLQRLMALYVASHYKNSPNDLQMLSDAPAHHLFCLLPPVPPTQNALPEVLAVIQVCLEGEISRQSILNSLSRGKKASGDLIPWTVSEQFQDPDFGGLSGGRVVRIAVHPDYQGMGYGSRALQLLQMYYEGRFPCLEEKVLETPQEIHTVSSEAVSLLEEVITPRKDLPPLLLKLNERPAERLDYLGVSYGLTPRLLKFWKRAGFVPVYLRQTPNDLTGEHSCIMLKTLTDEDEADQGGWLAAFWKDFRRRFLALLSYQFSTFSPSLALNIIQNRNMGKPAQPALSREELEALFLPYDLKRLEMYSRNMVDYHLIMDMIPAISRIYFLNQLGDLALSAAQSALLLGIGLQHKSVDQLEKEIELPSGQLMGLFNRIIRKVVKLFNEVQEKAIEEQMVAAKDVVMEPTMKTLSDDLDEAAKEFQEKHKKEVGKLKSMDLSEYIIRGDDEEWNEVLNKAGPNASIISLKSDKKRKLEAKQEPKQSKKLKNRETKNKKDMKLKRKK

Experiment [6] has as its target Casein kinase I isoform delta (Homo sapiens, UniProt P48730).
Experiment [7] concerns the target Platelet-derived growth factor receptor beta (Homo sapiens, UniProt P09619).
The target of experiment [8] is Tyrosine-protein kinase Fer (Homo sapiens, UniProt P16591).
Tyrosine-protein kinase Fer, sequence (P16591 whole entry): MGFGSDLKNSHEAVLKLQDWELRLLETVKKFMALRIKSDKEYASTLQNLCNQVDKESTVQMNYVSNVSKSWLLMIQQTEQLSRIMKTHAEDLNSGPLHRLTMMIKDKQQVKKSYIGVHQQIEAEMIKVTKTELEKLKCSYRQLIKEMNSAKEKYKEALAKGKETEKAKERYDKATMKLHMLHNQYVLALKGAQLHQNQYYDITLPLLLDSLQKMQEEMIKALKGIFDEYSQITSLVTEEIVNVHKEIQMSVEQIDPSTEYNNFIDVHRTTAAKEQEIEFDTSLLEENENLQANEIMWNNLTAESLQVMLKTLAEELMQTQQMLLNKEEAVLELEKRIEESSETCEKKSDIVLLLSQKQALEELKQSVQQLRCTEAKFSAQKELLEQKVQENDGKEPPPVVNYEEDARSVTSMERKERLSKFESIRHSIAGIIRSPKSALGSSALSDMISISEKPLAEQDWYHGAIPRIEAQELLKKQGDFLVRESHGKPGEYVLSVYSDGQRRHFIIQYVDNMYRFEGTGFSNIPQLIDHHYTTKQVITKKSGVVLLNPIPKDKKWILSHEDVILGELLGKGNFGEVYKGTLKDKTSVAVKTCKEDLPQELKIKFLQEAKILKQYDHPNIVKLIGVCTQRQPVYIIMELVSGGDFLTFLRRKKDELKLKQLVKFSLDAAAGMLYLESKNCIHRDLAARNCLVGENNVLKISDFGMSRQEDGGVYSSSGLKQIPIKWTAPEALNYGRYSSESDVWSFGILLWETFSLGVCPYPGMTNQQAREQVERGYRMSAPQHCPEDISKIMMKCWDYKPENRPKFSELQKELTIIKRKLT
Experiment [9] addresses MAP/microtubule affinity-regulating kinase 3 (Homo sapiens, UniProt P27448).
Further: in the data inactive means no Kd found up to 30 µM.

Structural maintenance of chromosomes protein 2, sequence (O95347 whole entry): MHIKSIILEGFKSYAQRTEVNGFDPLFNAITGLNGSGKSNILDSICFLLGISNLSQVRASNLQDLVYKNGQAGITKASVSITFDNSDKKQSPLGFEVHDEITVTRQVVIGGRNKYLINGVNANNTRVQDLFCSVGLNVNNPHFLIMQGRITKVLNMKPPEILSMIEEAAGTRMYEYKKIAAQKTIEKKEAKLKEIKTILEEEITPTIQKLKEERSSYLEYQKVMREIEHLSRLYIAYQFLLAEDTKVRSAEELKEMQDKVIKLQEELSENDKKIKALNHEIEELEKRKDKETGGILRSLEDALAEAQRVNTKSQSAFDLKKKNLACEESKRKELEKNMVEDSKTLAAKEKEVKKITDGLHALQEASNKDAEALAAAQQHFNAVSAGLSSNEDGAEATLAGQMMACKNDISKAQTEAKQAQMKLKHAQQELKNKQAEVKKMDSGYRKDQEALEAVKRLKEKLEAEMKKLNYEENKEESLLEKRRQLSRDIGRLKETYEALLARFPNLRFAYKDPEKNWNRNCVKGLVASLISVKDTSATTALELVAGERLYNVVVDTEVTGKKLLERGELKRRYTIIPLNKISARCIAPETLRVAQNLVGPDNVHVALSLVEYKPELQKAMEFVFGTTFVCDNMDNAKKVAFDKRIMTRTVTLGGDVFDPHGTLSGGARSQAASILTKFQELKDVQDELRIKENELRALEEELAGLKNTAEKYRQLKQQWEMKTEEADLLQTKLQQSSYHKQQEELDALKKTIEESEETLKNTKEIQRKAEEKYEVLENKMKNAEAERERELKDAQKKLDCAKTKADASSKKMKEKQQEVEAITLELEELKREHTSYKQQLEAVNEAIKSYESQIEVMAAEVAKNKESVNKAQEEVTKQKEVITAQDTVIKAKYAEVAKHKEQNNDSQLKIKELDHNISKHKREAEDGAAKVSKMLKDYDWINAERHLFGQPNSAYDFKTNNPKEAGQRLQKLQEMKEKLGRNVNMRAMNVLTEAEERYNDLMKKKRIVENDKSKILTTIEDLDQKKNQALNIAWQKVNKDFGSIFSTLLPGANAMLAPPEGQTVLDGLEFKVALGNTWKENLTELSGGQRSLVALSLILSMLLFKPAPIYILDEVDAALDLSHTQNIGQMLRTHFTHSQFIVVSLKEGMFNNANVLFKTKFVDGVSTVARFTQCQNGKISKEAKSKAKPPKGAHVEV
Casein kinase I isoform delta, sequence (P48730 whole entry, canonical isoform): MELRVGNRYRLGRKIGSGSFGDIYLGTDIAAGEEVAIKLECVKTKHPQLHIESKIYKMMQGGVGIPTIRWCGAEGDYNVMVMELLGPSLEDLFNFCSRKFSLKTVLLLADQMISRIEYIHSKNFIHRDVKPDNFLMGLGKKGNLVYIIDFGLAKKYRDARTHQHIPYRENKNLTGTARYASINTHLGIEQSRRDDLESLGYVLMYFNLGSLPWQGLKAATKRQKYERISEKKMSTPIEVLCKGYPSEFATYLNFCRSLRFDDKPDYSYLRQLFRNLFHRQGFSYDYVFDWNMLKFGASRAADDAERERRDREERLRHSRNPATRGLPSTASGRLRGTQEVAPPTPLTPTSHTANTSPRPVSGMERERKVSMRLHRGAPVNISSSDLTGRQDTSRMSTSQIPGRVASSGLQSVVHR
MAP/microtubule affinity-regulating kinase 3, sequence (P27448 whole entry): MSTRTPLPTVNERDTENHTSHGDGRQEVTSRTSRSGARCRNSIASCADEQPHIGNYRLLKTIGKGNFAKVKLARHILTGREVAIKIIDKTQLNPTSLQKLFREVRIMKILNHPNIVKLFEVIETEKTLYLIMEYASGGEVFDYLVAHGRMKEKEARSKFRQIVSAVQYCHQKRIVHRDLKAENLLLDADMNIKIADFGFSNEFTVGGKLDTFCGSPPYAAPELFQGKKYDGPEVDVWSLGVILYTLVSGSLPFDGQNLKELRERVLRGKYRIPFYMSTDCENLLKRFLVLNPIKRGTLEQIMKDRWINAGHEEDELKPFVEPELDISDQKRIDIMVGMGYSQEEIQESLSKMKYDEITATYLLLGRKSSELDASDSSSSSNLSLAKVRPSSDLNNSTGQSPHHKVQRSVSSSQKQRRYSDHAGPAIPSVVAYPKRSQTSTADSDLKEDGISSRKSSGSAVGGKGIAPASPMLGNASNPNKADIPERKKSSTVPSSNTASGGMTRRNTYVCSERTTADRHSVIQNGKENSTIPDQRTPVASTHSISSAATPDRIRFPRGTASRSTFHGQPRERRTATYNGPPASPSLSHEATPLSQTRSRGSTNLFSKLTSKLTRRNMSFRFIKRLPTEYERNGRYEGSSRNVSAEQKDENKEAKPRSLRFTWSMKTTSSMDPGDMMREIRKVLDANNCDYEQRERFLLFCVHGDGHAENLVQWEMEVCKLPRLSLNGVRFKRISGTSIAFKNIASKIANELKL
Platelet-derived growth factor receptor beta, sequence (P09619 whole entry): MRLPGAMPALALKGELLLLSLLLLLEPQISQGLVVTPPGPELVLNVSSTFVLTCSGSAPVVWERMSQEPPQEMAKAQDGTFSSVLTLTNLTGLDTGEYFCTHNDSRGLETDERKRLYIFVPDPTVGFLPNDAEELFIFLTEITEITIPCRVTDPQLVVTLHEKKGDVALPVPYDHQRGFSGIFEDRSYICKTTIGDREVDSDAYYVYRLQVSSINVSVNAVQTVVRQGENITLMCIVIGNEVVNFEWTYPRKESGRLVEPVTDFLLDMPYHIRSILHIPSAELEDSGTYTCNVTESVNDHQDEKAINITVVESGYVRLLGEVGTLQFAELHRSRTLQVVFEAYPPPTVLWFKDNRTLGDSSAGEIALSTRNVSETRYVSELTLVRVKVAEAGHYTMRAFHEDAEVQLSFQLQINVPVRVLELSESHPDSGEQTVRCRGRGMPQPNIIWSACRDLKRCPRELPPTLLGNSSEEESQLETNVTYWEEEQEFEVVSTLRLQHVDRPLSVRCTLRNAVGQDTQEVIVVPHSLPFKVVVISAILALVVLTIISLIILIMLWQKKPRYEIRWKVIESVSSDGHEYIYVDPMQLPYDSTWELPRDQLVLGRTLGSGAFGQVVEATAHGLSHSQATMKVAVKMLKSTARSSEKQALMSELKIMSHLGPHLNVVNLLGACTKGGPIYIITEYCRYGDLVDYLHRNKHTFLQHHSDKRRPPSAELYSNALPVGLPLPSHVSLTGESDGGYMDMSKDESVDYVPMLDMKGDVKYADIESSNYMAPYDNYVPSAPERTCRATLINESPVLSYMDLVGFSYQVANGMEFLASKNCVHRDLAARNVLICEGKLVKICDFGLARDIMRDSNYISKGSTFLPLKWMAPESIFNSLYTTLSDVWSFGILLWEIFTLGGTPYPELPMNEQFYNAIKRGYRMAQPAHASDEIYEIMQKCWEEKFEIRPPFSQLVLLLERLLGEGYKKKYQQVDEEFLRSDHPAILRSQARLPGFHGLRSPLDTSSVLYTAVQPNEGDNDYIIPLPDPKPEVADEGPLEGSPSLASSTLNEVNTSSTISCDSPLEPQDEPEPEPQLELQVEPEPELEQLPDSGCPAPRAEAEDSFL
Cyclin-dependent kinase 6, sequence (Q00534 whole entry): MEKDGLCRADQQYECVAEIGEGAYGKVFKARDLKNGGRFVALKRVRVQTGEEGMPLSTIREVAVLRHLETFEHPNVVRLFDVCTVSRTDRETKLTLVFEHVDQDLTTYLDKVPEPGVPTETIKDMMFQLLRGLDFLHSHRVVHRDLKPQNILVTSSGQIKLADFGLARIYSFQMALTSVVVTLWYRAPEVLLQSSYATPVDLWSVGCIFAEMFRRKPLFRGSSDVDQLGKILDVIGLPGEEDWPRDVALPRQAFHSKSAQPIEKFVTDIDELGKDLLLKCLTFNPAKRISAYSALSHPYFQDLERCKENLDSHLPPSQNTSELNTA

The Kd is the free concentration of one partner at which half of the binding sites on the other are occupied at equilibrium, for simple one-to-one binding. Take `C[C@@H]1COC(Nc2ccc3ncnc(Nc4ccc(OCc5nccs5)c(Cl)c4)c3c2)=N1` [VARLITINIB]: the Kd (on Septin-9; at dCTP pyrophosphatase 1; in [1]; in experiment [2]; in [3]; in experiment [4]) was > 30 µM (inactive) in each case. In addition, the Kd in experiment [5], in [6], in experiment [7], in experiment [8] and in experiment [9] was > 30 µM (inactive) throughout.

For `NC(=O)c1ccc(N(C(N)=O)c2c(F)cccc2F)nc1-c1ccc(F)cc1F` [VX-702], the Kd (at Septin-9; at dCTP pyrophosphatase 1; in experiment [1]; in [2]; in [3]; in [4]) was > 30 µM (inactive) in each case. For the same compound, the Kd in experiment [5], in experiment [6], in experiment [7], in experiment [8] and in experiment [9] was > 30 µM (inactive) each time.

Take `C=CC(=O)Nc1cc(Nc2nccc(-c3cn(C)c4ccccc34)n2)c(OC)cc1N(C)CCN(C)C` [OSIMERTINIB]: the Kd (at Septin-9; at dCTP pyrophosphatase 1; in [1]; in experiment [2]; in experiment [3]; in experiment [4]) was > 30 µM (inactive) each time. The Kd in [5], in experiment [6], in experiment [7], in experiment [8] and in [9] was > 30 µM (inactive) throughout.

For `COCCN1CCN(Cc2ccc(-c3n[nH]c4c3C(=O)c3c(NC(=O)NN5CCOCC5)cccc3-4)cc2)CC1` [RGB-286638], the Kd (on Septin-9; at dCTP pyrophosphatase 1; in experiment [1]; in experiment [2]; in [3]; in [4]) was > 30 µM (inactive) throughout. Also, the Kd in experiment [5] is > 30 µM (inactive); in [6], 1.22 µM (active); in [7], 1.36 µM; in experiment [8], > 30 µM (inactive); in experiment [9], > 30 µM (inactive).

`COc1cccc(Nc2ncnn3ccc(CN4CC[C@@H](N)[C@H](O)C4)c23)c1` [BMS-690514]: the Kd (at Septin-9; on dCTP pyrophosphatase 1; in [1]; in experiment [2]; in experiment [3]; in experiment [4]) was > 30 µM (inactive) throughout. The Kd was > 30 µM (inactive) in experiment [5]; > 30 µM (inactive) in [6]; > 30 µM (inactive) in experiment [7]; > 30 µM (inactive) in experiment [8]; 1.7 µM (active) in experiment [9].

Consider `Cn1c(=O)c(F)c(Nc2ccc(I)cc2F)c2c(=O)n(C[C@@H](O)CO)cnc21` [TAK-733], for which the Kd (on Septin-9; at dCTP pyrophosphatase 1; in experiment [1]; in [2]; in experiment [3]; in [4]) was > 30 µM (inactive) in each case. Further, the Kd in [5], in [6], in experiment [7], in experiment [8] and in experiment [9] was > 30 µM (inactive) throughout.

For the compound `COc1cc(Nc2ncc(F)c(Nc3ccc4c(n3)N(COP(=O)(O)O)C(=O)C(C)(C)O4)n2)cc(OC)c1OC` [FOSTAMATINIB], the Kd (at Septin-9; at dCTP pyrophosphatase 1; in [1]; in [2]; in experiment [3]; in experiment [4]) was > 30 µM (inactive) each time. Also, the Kd in experiment [5], in [6], in experiment [7], in experiment [8] and in experiment [9] was > 30 µM (inactive) in each case.

As to `C#Cc1cccc(Nc2ncnc3cc4c(cc23)OCCOCCOCCO4)c1` [ICOTINIB], the Kd (at Septin-9; on dCTP pyrophosphatase 1; in experiment [1]; in experiment [2]; in [3]; in experiment [4]) was > 30 µM (inactive) throughout. Also, the Kd in experiment [5], in experiment [6], in experiment [7], in [8] and in [9] was > 30 µM (inactive) each time.

For `Cn1cc(-c2[nH]c3cc(NC(=O)[C@H](N)C4CCCCC4)cc4c3c2C=NNC4=O)cn1`, the Kd (at Septin-9; at dCTP pyrophosphatase 1; in [1]; in [2]; in [3]; in experiment [4]) was > 30 µM (inactive) throughout. In addition, the Kd is > 30 µM (inactive) in [5]; > 30 µM (inactive) in experiment [6]; 0.1 µM (active) in experiment [7]; > 30 µM (inactive) in experiment [8]; 0.387 µM (active) in experiment [9].

Turning to `FC(F)(F)c1ccc(CNc2ccc(Cc3c[nH]c4ncc(Cl)cc34)cn2)cn1` [PEXIDARTINIB], the Kd (on Septin-9; at dCTP pyrophosphatase 1; in [1]; in [2]; in [3]; in experiment [4]) was > 30 µM (inactive) in each case. Also, the Kd in experiment [5], in experiment [6], in experiment [7], in experiment [8] and in experiment [9] was > 30 µM (inactive) throughout.
